The values below come from ChEMBL document CHEMBL4421722, “Inhibitors of protein prenyltransferases” (2013).

For assay [1], the species on record is Rattus norvegicus. As to the kind of experiment: Inhibition of rat recombinant geranylgeranyltransferase type I expressed in Escherichia coli assessed as residual enzyme activity for geranylgeranylation of K-Ras4B at 50 uM incubated for 30 mins in presence of [3H]GGPP by scintillation counting assay relative to control.
Assay [2] is filed under the species Rattus norvegicus. In words: Inhibition of rat recombinant geranylgeranyltransferase type I expressed in Escherichia coli assessed as residual enzyme activity for geranylgeranylation of RhoA at 50 uM incubated for 30 mins in presence of [3H]GGPP by scintillation counting assay relative to control.

SMILES strings stand for the structures.

For the compound `Cc1ccc(S(=O)(=O)N2C[C@@H](C(=O)O)[C@H](SCc3ccc(Cl)cc3)C[C@H]2c2cccc(Cl)c2)cc1`, the Activity in the assay listed under Rattus norvegicus [1] was 11.9 to 13.5%; in the assay listed under Rattus norvegicus [2], 6%.
In the same order, the values of `C=CCS[C@H]1[C@@H](C(=O)O)[C@H](c2ccc(C#N)cc2)N(S(=O)(=O)c2ccc(C)cc2)[C@@H]1CCCCCC` are 21.5% and 6%.
In the same order, the values of `CCC[C@@H]1[C@@H](Sc2ccc(C)cc2)[C@@H](C(=O)O)[C@H](c2cccc(F)c2)N1S(=O)(=O)c1ccc(C)cc1` are 14.7% and 4.1%.
On the same counts, the results for `Cc1ccc(S(=O)(=O)N2[C@@H](c3ccc(Cl)cc3)C(C(=O)O)=CC[C@H]2c2ccc(Cl)c(Cl)c2)cc1` are 17.7 to 21.3% and 12.1%.
For `C=CCS[C@H]1[C@@H](C(=O)O)[C@H](c2ccc(Cl)c(Cl)c2)N(S(=O)(=O)c2ccc(C)cc2)[C@@H]1CC1CCCC1`, the Activity was determined as 12.1% in the assay filed under Rattus norvegicus [1] and 8.6% in the assay listed under Rattus norvegicus [2].
Turning to `Cc1ccc(S(=O)(=O)N2C[C@@H](C(=O)O)[C@H](Sc3ccccc3)C[C@H]2c2ccccc2F)cc1`, the results for the Activity in the assay listed under Rattus norvegicus [1] and in the assay listed under Rattus norvegicus [2] were 51% and 8.1%, respectively.
In the same order, the values of `COc1ccc([C@@H]2C[C@@H](Sc3ccc(Cl)cc3)[C@H](C(=O)O)CN2S(=O)(=O)c2ccccc2)cc1` are 88.8% and 13.4%.
In the same order, the values of `Cc1ccc(S(=O)(=O)N2C[C@@H](C(=O)O)[C@H](SCc3ccc(Cl)cc3)C[C@H]2c2ccc(Cl)cc2)cc1` are 15.5 to 18.1% and 4.9%.
In the same order, the values of `Cc1ccc([C@@H]2C[C@@H](SCCc3ccccc3)[C@H](C(=O)O)CN2S(=O)(=O)c2ccc(C)cc2)cc1` are 22.6 to 35.4% and 12.4%.
Turning to `COc1ccc([C@H]2C(C(=O)O)=C[C@@H](C(C)(C)C)N2S(=O)(=O)c2ccc(C)cc2)cc1OC`, the Activity was found to be 23.4% in the assay listed under Rattus norvegicus [1] and 6.1% in the assay filed under Rattus norvegicus [2].
Regarding `Cc1ccccc1S(=O)(=O)N1[C@H](CC2CCCC2)[C@@H](SCCC(=O)OC(C)(C)C)[C@@H](C(=O)O)[C@@H]1c1ccc(Cl)cc1`, the Activity in the assay listed under Rattus norvegicus [1] was 10%; in the assay filed under Rattus norvegicus [2], 7.8%.
As for `C=CCS[C@H]1[C@@H](C(=O)O)[C@H](c2cccc(F)c2)N(S(=O)(=O)c2ccc(C)cc2)[C@@H]1CC1CCCC1`, the results for the Activity in the assay filed under Rattus norvegicus [1] and in the assay filed under Rattus norvegicus [2] were 30.4% and 9.7%, respectively.
In the same order, the values of `Cc1ccc(S(=O)(=O)N2C[C@@H](C(=O)O)[C@H](SCCc3ccccc3)C[C@H]2c2ccc3c(c2)OCO3)cc1` are 6.5 to 9.2% and 2%.
In the same order, the values of `COc1ccc([C@@H]2C[C@@H](Sc3ccc(Cl)cc3)[C@H](C(=O)O)CN2S(=O)(=O)c2ccc(Cl)cc2)cc1` are 73.2% and 8.6%.
In the same order, the values of `COc1ccc([C@@H]2C[C@@H](SCCc3ccccc3)[C@H](C(=O)O)CN2S(=O)(=O)c2ccc(C)cc2)cc1` are 28.8 to 29.9% and 6.1%.
With `CCC[C@@H]1[C@@H](SCCC(=O)OC(C)(C)C)[C@@H](C(=O)O)[C@H](c2cccc(F)c2)N1S(=O)(=O)c1ccc(C)cc1`, the values for the Activity in the assay listed under Rattus norvegicus [1] and in the assay listed under Rattus norvegicus [2] were 20.2% and 7.8%, respectively.
For `CCOc1ccc([C@@H]2C[C@@H](Sc3ccc(Cl)cc3)[C@H](C(=O)O)CN2S(=O)(=O)c2ccc(C)cc2)cc1`, the Activity in the assay filed under Rattus norvegicus [1] worked out at 72.4%; in the assay filed under Rattus norvegicus [2] it was 2.6%.
On the same counts, the results for `C=CCS[C@H]1[C@@H](C(=O)O)[C@H](c2ccc(Cl)cc2)N(S(=O)(=O)c2ccc(C)cc2)[C@@H]1CC1CCCC1` are 25.2% and 7.7%.
On the same counts, the results for `CCCCS[C@H]1[C@@H](C(=O)O)[C@H](c2cccc(F)c2)N(S(=O)(=O)c2ccc(C)cc2)[C@@H]1CCCC` are 23.5% and 7.1%.
On the same counts, the results for `Cc1ccc(S(=O)(=O)N2C[C@@H](C(=O)O)[C@H](SCCc3ccccc3)C[C@H]2c2ccccc2)cc1` are 15.2 to 16.5% and 5.8%.
`Cc1ccc(S(=O)(=O)N2C[C@@H](C(=O)O)[C@H](SCc3ccc(Cl)cc3)C[C@H]2c2ccccc2)cc1`: the results for the Activity in the assay listed under Rattus norvegicus [1] and in the assay filed under Rattus norvegicus [2] were 23.7 to 24.8% and 14.2%, respectively.
On the same counts, the results for `C=CCS[C@@H]1C[C@@H](c2ccc(Cl)cc2)N(S(=O)(=O)c2ccccc2C)C[C@H]1C(=O)O` are 16.4 to 17.8% and 9.4%.
Take `Cc1ccc(S(=O)(=O)N2C[C@@H](C(=O)O)[C@H](Sc3ccc(Cl)cc3)C[C@H]2c2cccc(Cl)c2)cc1`: the results for the Activity in the assay filed under Rattus norvegicus [1] and in the assay filed under Rattus norvegicus [2] were 111% and 6%, respectively.
In the same order, the values of `COc1cccc([C@@H]2C[C@@H](SCCc3ccccc3)[C@H](C(=O)O)CN2S(=O)(=O)c2ccc(C)cc2)c1` are 20.8 to 24.2% and 11.4%.
On the same counts, the results for `Cc1ccc(S(=O)(=O)N2[C@@H](c3cccc(Br)c3)C(C(=O)O)=CC[C@H]2c2ccc(Cl)c(Cl)c2)cc1` are 8.6 to 24.9% and 3.2%.
On the same counts, the results for `Cc1ccc([C@@H]2C[C@@H](Sc3ccccc3)[C@H](C(=O)O)CN2S(=O)(=O)c2ccccc2C)cc1` are 69.5% and 17.5%.
For `Cc1ccc([C@@H]2C[C@@H](Sc3ccc(Cl)cc3)[C@H](C(=O)O)CN2S(=O)(=O)c2ccccc2)cc1`, the Activity in the assay filed under Rattus norvegicus [1] was found to be 78.3%; in the assay filed under Rattus norvegicus [2], 17.2%.
In the same order, the values of `Cc1ccc(S(=O)(=O)N2C[C@@H](C(=O)O)[C@H](SCC(C)C)C[C@H]2c2ccccc2)cc1` are 26 to 85.1% and 10.7%.
In the same order, the values of `CCCCCC[C@@H]1[C@@H](SC2CCCC2)[C@@H](C(=O)O)[C@H](c2ccc(C#N)cc2)N1S(=O)(=O)c1ccc(C)cc1` are 20.1% and 7.4%.
Take `C=CCS[C@@H]1C[C@@H](c2cccc(Br)c2)N(S(=O)(=O)c2ccc(C)cc2)C[C@H]1C(=O)O`: the Activity in the assay filed under Rattus norvegicus [1] was 29.2 to 83.6%; in the assay listed under Rattus norvegicus [2] it was 13.6%.
In the same order, the values of `C=CCS[C@H]1[C@@H](C(=O)O)[C@H](c2ccc(Cl)cc2)N(S(=O)(=O)c2ccccc2C)[C@@H]1CCCC` are 23.1% and 8.4%.
On the same counts, the results for `Cc1ccc(S(=O)(=O)N2C[C@@H](C(=O)O)[C@H](SCCc3ccccc3)C[C@H]2c2cccc(Cl)c2)cc1` are 4.8 to 9.2% and 3.7%.
On to `Cc1ccccc1S(=O)(=O)N1[C@@H](c2ccccc2)C(C(=O)O)=CC[C@H]1c1ccc(Cl)cc1`, for which the Activity is 13.4% in the assay filed under Rattus norvegicus [1] and 5.8% in the assay filed under Rattus norvegicus [2].
On the same counts, the results for `Cc1ccc(S(=O)(=O)N2C[C@@H](C(=O)O)[C@H](Sc3ccccc3)C[C@H]2c2ccc(Cl)cc2)cc1` are 40% and 4.6%.
`CC[C@@H]1[C@@H](Sc2ccc(OC)cc2)[C@@H](C(=O)O)[C@H](c2cccc(Cl)c2)N1S(=O)(=O)c1ccc(C)cc1`: the Activity is 25.5% in the assay filed under Rattus norvegicus [1] and 6.5% in the assay listed under Rattus norvegicus [2].
On the same counts, the results for `Cc1ccc(S(=O)(=O)N2C[C@@H](C(=O)O)[C@H](SCC(C)C)C[C@H]2c2cccc(Br)c2)cc1` are 11.4 to 18.8% and 1.3%.
With `Cc1ccccc1S(=O)(=O)N1C[C@@H](C(=O)O)[C@H](Sc2ccccc2)C[C@H]1c1ccc(Cl)cc1`, the results for the Activity in the assay filed under Rattus norvegicus [1] and in the assay filed under Rattus norvegicus [2] were 75.5% and 7.8%, respectively.
As to `Cc1ccc(S(=O)(=O)N2[C@@H](c3cccc(Br)c3)C(C(=O)O)=CC[C@H]2c2cccc(Cl)c2)cc1`, the Activity in the assay filed under Rattus norvegicus [1] was 11 to 23.1%; in the assay listed under Rattus norvegicus [2], 7%.
In the same order, the values of `Cc1ccc(S(=O)(=O)N2C(c3ccc(Cl)c(Cl)c3)CC=C(C(=O)O)C2c2cccc(Cl)c2)cc1` (stereo unspecified) are 10.7 to 26% and 4.5%.
On the same counts, the results for `Cc1ccc(S(=O)(=O)N2C[C@@H](C(=O)O)[C@H](SCc3ccccc3)C[C@H]2c2cccc(Br)c2)cc1` are 5.5 to 7.6% and 2.9%.
On the same counts, the results for `CCC[C@@H]1[C@@H](Sc2ccc(OC)cc2)[C@@H](C(=O)O)[C@H](c2cccc(F)c2)N1S(=O)(=O)c1ccc(C)cc1` are 27.4% and 3.5%.
As for `CCCC[C@@H]1[C@@H](Sc2ccc(C)cc2)[C@@H](C(=O)O)[C@H](c2cccc(F)c2)N1S(=O)(=O)c1ccc(C)cc1`, the Activity worked out at 31.5% in the assay listed under Rattus norvegicus [1] and 7.1% in the assay listed under Rattus norvegicus [2].
As for `Cc1ccc([C@@H]2C[C@@H](SCc3ccc(Cl)cc3)[C@H](C(=O)O)CN2S(=O)(=O)c2ccccc2)cc1`, the values for the Activity in the assay filed under Rattus norvegicus [1] and in the assay listed under Rattus norvegicus [2] were 22 to 29.6% and 17.2%, respectively.
On the same counts, the results for `Cc1ccc(S(=O)(=O)N2C[C@@H](C(=O)O)[C@H](SCc3ccccc3)C[C@H]2c2ccc(Cl)cc2)cc1` are 11.5 to 15.8% and 4.6%.
Regarding `Cc1ccc([C@@H]2C[C@@H](SCc3ccc(Cl)cc3)[C@H](C(=O)O)CN2S(=O)(=O)c2ccc(Cl)cc2)cc1`, the Activity in the assay filed under Rattus norvegicus [1] is 30.8 to 31.6%; in the assay listed under Rattus norvegicus [2], 3.3%.
On the same counts, the results for `Cc1ccc(S(=O)(=O)N2[C@@H](c3ccccc3)C(C(=O)O)=CC[C@H]2c2cccc(Br)c2)cc1` are 35.2% and 19.4%.
In the same order, the values of `CCCCCS[C@@H]1C[C@@H](c2cccc(Br)c2)N(S(=O)(=O)c2ccc(C)cc2)C[C@H]1C(=O)O` are 28.5 to 85.1% and 10.8%.
On the same counts, the results for `Cc1ccc([C@@H]2C[C@@H](SCCc3ccccc3)[C@H](C(=O)O)CN2S(=O)(=O)c2ccccc2C)cc1` are 10.2 to 13.8% and 5.3%.
For the compound `Cc1ccc(S(=O)(=O)N2C[C@@H](C(=O)O)[C@H](Sc3ccccc3)C[C@H]2c2cccc(Br)c2)cc1`, in the assay listed under Rattus norvegicus [2], the Activity was 2.9%.
For `Cc1ccc(S(=O)(=O)N2[C@@H](c3ccc(C(C)(C)C)cc3)C(C(=O)O)=CC[C@H]2c2cccs2)cc1`, in the assay listed under Rattus norvegicus [1], the Activity stood at 68.1%.
The same measure, in the same setting: for `Cc1ccc(S(=O)(=O)N2C[C@@H](C(=O)O)[C@H](SC3CCCC3)C[C@H]2c2cccc(Br)c2)cc1` the value was 72.1%; for `Cc1ccc(S[C@@H]2C[C@@H](c3ccccc3F)N(S(=O)(=O)c3ccc(C)cc3)C[C@H]2C(=O)O)cc1`, 80.4%; for `CCc1ccc([C@@H]2CC=C(C(=O)O)[C@H](c3ccc(C)cc3)N2S(=O)(=O)c2ccc(C)cc2)cc1`, 87%.
